Measured values as given in patent US20120005765A1, “ANIMAL MODEL FOR PARKINSON'S DISEASE” (Saint Louis University, priority 2010, published 2012).
Entries after “also recorded” stand apart in the source; their conditions may differ.

Tests used:
α-synuclein [1] = biological target: α-synuclein (Homo sapiens, UniProt P37840); test: DOPAL-triggered α-synuclein aggregation in test tube, Western blot; assay type: biochemical; conditions: AS 2 μM, 37° C., up to 4 h, DOPAL 1.5-1,500 μM
Method: Determination of DOPAL-triggered α-synuclein aggregation in vitro. Western blot of DOPAL-triggered AS aggregation in test tube experiments. DOPAL was dissolved in 1% benzyl alcohol, then diluted to a final concentration of 1.5-1,500 μM as described previously. AS (2 μM) was incubated at 37° C. in 20 μl of 100 mM tris-HCl buffer (pH 7.2) with or without DA, DOPAL, DOPAC, or homovanillic acid (HVA) for up to 4 h. The reaction was stopped by heating at 70° C. for 3 min in SDS buffer. The entire mixture was transferred to the appropriate gel (vide infra).
SDS-PAGE and immunoblotting. Ten micrograms of protein (estimated by Bio Rad protein reagent) was resolved by electrophoresis on 4-12% bis-tris gels run with MES SDS buffer, and 3-8% tris-acetate gels using tris-acetate running buffer. For immunoblotting, the protein was transferred to PVDF blotting membranes with […] pore size, blocked with 5% milk protein in tris buffered saline (TBS) containing 0.1% Tween 20, and incubated for 1 h with a AS 202 monoclonal antibody (1:2,500 dilution). Blots were washed five times with 5% milk protein in TBS and probed with horseradish peroxidase-conjugated anti-mouse secondary antibody (1:2,500). Blots were washed five times with TBS containing. 0.5% Tween 20 before detection with Super Signal (Pierce).
Western blot analysis was performed to analyze DOPAL-induced aggregation of α-synuclein (FIG. 1). […]

α-synuclein [2] = biological target: T1, α-synuclein (Rattus norvegicus, UniProt P37377); test: DOPAL-triggered α-synuclein aggregation in vivo, intranigral injection, Western blot; conditions: rat SN injected with 1 μg or 0.2 μg DOPAL, 1 and 4 hours
T1 construct: from tissue; host or cells: substantia nigra of Sprague-Dawley rats
Excerpt: Western blot of DOPAL-triggered AS aggregation in vivo Intranigral DOPAL injections and tissue preparation for Western blot. The housing and nutrition of the rats used in this study and all procedures performed on them conformed to standards set forth in the Guide for the Care and Use of Laboratory Animals of the National Research Council (National Academy Press, 1996). The experimental protocols reported herein were reviewed and approved by the Animal Care Committee of the Saint Louis University.
The details of the surgical and immunohistochemical methods have been previously described (Burke et al., Brain Res 989:205-213, 2003). Briefly, 2-month-old Sprague-Dawley rats (300 g; Harlan, Indianapolis, Ind., USA) were deeply anesthetized with 4% induction and maintained with 1% isoflurane. The heads of the rats were fixed in a stereotaxic apparatus (David Kopf, Tujunga, CA, USA). […]
Rats for Western blot analysis were killed after 4 h by injecting pentobarbital (100 mg/kg, IP). […] The black microspheres were identified in the pellets and supernatants were analyzed with Western blot as described above using AS 202 and J3-actin antibodies. For the 4-h 1.0-μg DOPAL and control SN injections, the density of the bands on the blot was determined using the UnScan it program (Silk Scientific, Orem, Utah, USA). The results were expressed as units of AS aggregate/unit of actin. […]

PC12 cells = test: DOPAL toxicity in vitro, viable PC12 cell count (trypan blue); conditions: for PC 12 cells/well × 103: rat
Method: Determination of DOPAL toxicity in vitro Toxicity experiments were essentially as described previously. PC12 cultures were initially expanded in T-75 flasks with 20 ml Dulbecco's Modified Eagle's Medium supplemented with 4.5 g/l glucose, 4 mM L-glutamine, 5% fetal calf serum, 10% horse serum, 1000 units/l penicillin, and 100 mg/l streptomycin. Cells were transferred to six well culture plates with 2 ml media and grown to 1.5×10^5 cells/well, treated with 50 ng/ml nerve growth factor (NGF), and maintained in NGF-containing media for 7 d prior to experimentation. The medium was changed every 2-3 d. […] During the experiments, the medium was replaced once a day. Cells were detached with buffered saline containing EDT A, centrifuged at 200×g and resuspended in trypan blue for counting of viable cells. […] DOPAL and other compounds were added as described in the description of the figure and examples. Data was analyzed by ANOVA.
DOPAL, as well as other physiologically metabolites and adducts, were added to PC12 cells in culture at concentrations that were physiologically relevant.

SMILES: O=CCc1ccc(O)c(O)c1 [DOPAL, 3,4-dihydroxyphenylacetaldehyde]
- aggregation of α-synuclein oligomers in vitro (α-synuclein [1]): triggers dose-dependent aggregation
- aggregation of α-synuclein in vivo (α-synuclein [2]): triggers a selective dose and time dependent aggregation; also recorded: even small amounts of DOPAL still aggregate α-synuclein
- toxic in vitro at physiological levels (PC12 cells): toxic
- PC 12 cells/well × 103 (PC12 cells; 6.6 μM): 105 ± 12b cells/well × 103
- PC 12 cells/well × 103 (PC12 cells; 30 μM): 107 ± 10b cells/well × 103
- PC 12 cells/well × 103 (PC12 cells; 66 μM): 100 ± 5a cells/well × 103
